Measurements published in PubChem BioAssay (NCI).
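Interpolation was linear, between the two tested concentrations surrounding the appropriate level; five concentrations were tested over 48 hours in 96-well plates. TGI: concentration producing complete growth inhibition.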

Tests used:
Experiment in all cases: growth of human tumour cells (NCI), 48 h
[1] = tested on: IGROV1 ovarian
[2] = tested on: SK-MEL-28 melanoma
[3] = tested on: RXF 393 renal
[4] = tested on: HOP-92 NSCLC
[5] = tested on: OVCAR-3 ovarian
[6] = tested on: CCRF-CEM leukemia
[7] = tested on: KM12 colon
[8] = tested on: HS 578T breast
[9] = tested on: COLO 205 colon
[10] = tested on: SNB-75 CNS
[11] = tested on: RPMI-8226 leukemia
[12] = tested on: SN12C renal
[13] = tested on: SW-620 colon
[14] = tested on: NCI-H522 lung
[15] = tested on: SK-OV-3 ovarian
[16] = tested on: NCI-H226 lung
[17] = tested on: HL-60(TB) leukemia
[18] = tested on: OVCAR-8 ovarian
[19] = tested on: A498 renal
[20] = tested on: SK-MEL-5 melanoma
[21] = tested on: MALME-3M melanoma
[22] = tested on: A549 NSCLC
[23] = tested on: NCI-H23 lung
[24] = tested on: HCC-2998 colon
[25] = tested on: UO-31 renal
[26] = tested on: NCI/ADR-RES ovarian
[27] = tested on: M14 melanoma
[28] = tested on: MDA-MB-435
[29] = tested on: MDA-N
[30] = tested on: EKVX NSCLC
[31] = tested on: SF-295 CNS
[32] = tested on: MCF7 breast
[33] = tested on: PC-3 prostate
[34] = tested on: SF-268 CNS
[35] = tested on: SR leukemia
[36] = tested on: NCI-H460 lung
[37] = tested on: HCT-15 colon
[38] = tested on: SF-539 CNS
[39] = tested on: SK-MEL-2 melanoma
[40] = tested on: CAKI-1 renal
[41] = tested on: UACC-62 melanoma
[42] = tested on: HOP-62 NSCLC
[43] = tested on: MDA-MB-231 breast
[44] = tested on: LOX IMVI melanoma
[45] = tested on: OVCAR-4 ovarian
[46] = tested on: TK-10 renal
[47] = tested on: HCT-116 colon
[48] = tested on: U251 CNS
[49] = tested on: HT29 colon
[50] = tested on: MOLT-4 leukemia
[51] = tested on: UACC-257 melanoma
[52] = tested on: 786-0 renal
[53] = tested on: T-47D breast
[54] = tested on: OVCAR-5 ovarian
[55] = tested on: DU-145 prostate
[56] = tested on: ACHN renal
[57] = tested on: SNB-19 CNS
[58] = tested on: BT-549 breast
[59] = tested on: K-562 leukemia

C[N+]12CCCCC1C(CN1C(=O)c3ccccc3C1=O)CCC2 (configuration not stated)
TGI [1]: > 100 µM
TGI [2]: > 100 µM
TGI [3]: > 100 µM
TGI [4]: > 100 µM
TGI [5]: > 100 µM
TGI [6]: > 100 µM
TGI [7]: > 100 µM
TGI [8]: > 100 µM
TGI [9]: > 100 µM
TGI [10]: > 100 µM
TGI [11]: > 100 µM
TGI [12]: > 100 µM
TGI [13]: > 100 µM
TGI [14]: > 100 µM
TGI [15]: > 100 µM
TGI [16]: > 100 µM
TGI [17]: > 100 µM
TGI [18]: > 100 µM
TGI [19]: > 100 µM
TGI [20]: > 100 µM
TGI [21]: > 100 µM
TGI [22]: > 100 µM
TGI [23]: > 100 µM
TGI [24]: > 100 µM
TGI [25]: > 100 µM
TGI [26]: > 100 µM
TGI [27]: > 100 µM
TGI [28]: > 100 µM
TGI [29]: > 100 µM
TGI [30]: > 100 µM
TGI [31]: > 100 µM
TGI [32]: > 100 µM
TGI [33]: > 100 µM
TGI [34]: > 100 µM
TGI [35]: > 100 µM
TGI [36]: > 100 µM
TGI [37]: > 100 µM
TGI [38]: > 100 µM
TGI [39]: > 100 µM
TGI [40]: > 100 µM
TGI [41]: > 100 µM
TGI [42]: > 100 µM
TGI [43]: > 100 µM
TGI [44]: > 100 µM
TGI [45]: > 100 µM
TGI [46]: > 100 µM
TGI [47]: > 100 µM
TGI [48]: > 100 µM
TGI [49]: > 100 µM
TGI [50]: > 100 µM
TGI [51]: > 100 µM
TGI [52]: > 100 µM
TGI [53]: > 100 µM
TGI [54]: > 100 µM
TGI [55]: > 100 µM
TGI [56]: > 100 µM
TGI [57]: > 100 µM
TGI [58]: > 100 µM
TGI [59]: > 100 µM

Cc1ccc(N2C(=O)C(=O)N(/N=C3\C(=O)Nc4ccccc43)C2=S)cc1
TGI [1]: > 100 µM
TGI [2]: > 100 µM
TGI [3]: > 100 µM
TGI [4]: > 100 µM
TGI [5]: > 100 µM
TGI [6]: > 100 µM
TGI [7]: > 100 µM
TGI [8]: > 100 µM
TGI [9]: > 100 µM
TGI [10]: > 100 µM
TGI [11]: > 100 µM
TGI [12]: > 100 µM
TGI [13]: > 100 µM
TGI [14]: > 100 µM
TGI [15]: > 100 µM
TGI [17]: 25.4 µM
TGI [18]: > 100 µM
TGI [19]: > 100 µM
TGI [20]: > 100 µM
TGI [21]: > 100 µM
TGI [22]: > 100 µM
TGI [23]: > 100 µM
TGI [24]: > 100 µM
TGI [25]: > 100 µM
TGI [26]: > 100 µM
TGI [27]: > 100 µM
TGI [28]: > 100 µM
TGI [29]: > 100 µM
TGI [30]: > 100 µM
TGI [31]: > 100 µM
TGI [32]: > 100 µM
TGI [33]: > 100 µM
TGI [34]: > 100 µM
TGI [35]: > 100 µM
TGI [36]: > 100 µM
TGI [37]: > 100 µM
TGI [38]: > 100 µM
TGI [39]: > 100 µM
TGI [40]: > 100 µM
TGI [41]: > 100 µM
TGI [42]: > 100 µM
TGI [43]: > 100 µM
TGI [44]: > 100 µM
TGI [46]: > 100 µM
TGI [47]: > 100 µM
TGI [48]: > 100 µM
TGI [49]: > 100 µM
TGI [50]: > 100 µM
TGI [51]: > 100 µM
TGI [52]: > 100 µM
TGI [53]: > 100 µM
TGI [54]: > 100 µM
TGI [55]: > 100 µM
TGI [56]: > 100 µM
TGI [57]: > 100 µM
TGI [58]: > 100 µM
TGI [59]: > 100 µM

CC(C)OP(=O)(OC(C)C)C(Nc1cccc(C(F)(F)F)c1)c1ccccc1 (configuration not stated)
TGI [1]: > 100 µM
TGI [2]: > 100 µM
TGI [3]: > 100 µM
TGI [4]: > 100 µM
TGI [5]: > 100 µM
TGI [6]: > 100 µM
TGI [7]: > 100 µM
TGI [8]: > 100 µM
TGI [9]: 84 µM
TGI [10]: > 100 µM
TGI [11]: 87.3 µM
TGI [12]: > 100 µM
TGI [14]: > 100 µM
TGI [15]: > 100 µM
TGI [16]: > 100 µM
TGI [17]: > 100 µM
TGI [18]: > 100 µM
TGI [19]: > 100 µM
TGI [20]: 76.5 µM
TGI [21]: > 100 µM
TGI [22]: > 100 µM
TGI [23]: > 100 µM
TGI [24]: > 100 µM
TGI [25]: > 100 µM
TGI [26]: > 100 µM
TGI [27]: > 100 µM
TGI [28]: > 100 µM
TGI [29]: > 100 µM
TGI [30]: > 100 µM
TGI [31]: > 100 µM
TGI [32]: > 100 µM
TGI [33]: > 100 µM
TGI [34]: > 100 µM
TGI [35]: > 100 µM
TGI [36]: > 100 µM
TGI [37]: > 100 µM
TGI [38]: > 100 µM
TGI [39]: > 100 µM
TGI [40]: > 100 µM
TGI [41]: > 100 µM
TGI [42]: > 100 µM
TGI [43]: > 100 µM
TGI [44]: > 100 µM
TGI [45]: > 100 µM
TGI [46]: > 100 µM
TGI [47]: > 100 µM
TGI [48]: > 100 µM
TGI [49]: > 100 µM
TGI [50]: 65.5 µM
TGI [51]: > 100 µM
TGI [52]: > 100 µM
TGI [53]: > 100 µM
TGI [54]: > 100 µM
TGI [55]: > 100 µM
TGI [56]: > 100 µM
TGI [57]: > 100 µM
TGI [58]: > 100 µM
TGI [59]: > 100 µM

Cc1nc(Nc2nc3ccccc3[nH]2)[nH]c(=O)c1CCO
TGI [1]: > 57 µM
TGI [2]: > 100 µM
TGI [3]: > 84.3 µM
TGI [4]: > 100 µM
TGI [5]: > 100 µM
TGI [6]: > 100 µM
TGI [7]: > 100 µM
TGI [8]: > 100 µM
TGI [9]: > 100 µM
TGI [10]: > 100 µM
TGI [12]: > 100 µM
TGI [13]: > 100 µM
TGI [14]: > 100 µM
TGI [15]: > 82.1 µM
TGI [16]: > 96 µM
TGI [17]: > 100 µM
TGI [18]: > 100 µM
TGI [19]: > 100 µM
TGI [20]: > 100 µM
TGI [21]: > 71.5 µM
TGI [22]: > 100 µM
TGI [23]: > 100 µM
TGI [24]: > 100 µM
TGI [25]: > 100 µM
TGI [26]: > 100 µM
TGI [27]: 98.9 µM
TGI [28]: > 100 µM
TGI [29]: > 100 µM
TGI [30]: > 100 µM
TGI [31]: > 100 µM
TGI [32]: > 100 µM
TGI [33]: > 100 µM
TGI [34]: > 100 µM
TGI [35]: > 100 µM
TGI [36]: > 100 µM
TGI [37]: > 100 µM
TGI [38]: > 65.3 µM
TGI [39]: > 100 µM
TGI [40]: > 100 µM
TGI [41]: > 100 µM
TGI [42]: > 100 µM
TGI [43]: > 100 µM
TGI [44]: > 94.7 µM
TGI [45]: > 100 µM
TGI [46]: > 81.4 µM
TGI [47]: > 100 µM
TGI [48]: > 100 µM
TGI [49]: > 100 µM
TGI [50]: > 100 µM
TGI [51]: > 100 µM
TGI [52]: > 100 µM
TGI [53]: > 100 µM
TGI [54]: > 100 µM
TGI [55]: > 100 µM
TGI [56]: > 100 µM
TGI [57]: > 100 µM
TGI [58]: > 100 µM
TGI [59]: > 100 µM
